# Values quoted from earlier work as cited in patent US6939400B2, “Ink, production method of the same materials for producing the same and printed matter with the same” (Teikoku Printing Mfg. Co., Ltd., priority 2002, dated 2005).
# Tested on: mouse
structure (smiles),measurement,value
COC(C)(C)CCO [3-methyl-3-methoxy-1-butanol],LD 50 value representing the mouse oral toxicity,"5,830 mg/kg"
